Peptide text beside a SMILES is read from it.
Assays:
DENV (strain 16681) = assay: DENV plaque assay (virus yield from infected Huh-7 cells, titration on VeroE6); type: cell-based, Dengue virus serotype 2; conditions: preliminary studies
Description: Inhibition of DENV propagation was determined by plaque assay as described recently[20]^,[28] with slight modifications. Huh-7 cells were seeded into 96-well plates and incubated overnight. The next day, cells were infected with DENV (strain 16681) at a multiplicity of infection (MOI) of 1 PFU/cell. Given concentrations of the compounds, dissolved in culture medium, were added to the cells together with the virus. After 2 h incubation at 37 °C, inocula were removed and cells were covered with fresh medium containing given concentrations of the inhibitors. Production of virus progeny was determined 48 h postinfection by titration of cell supernatants using a plaque assay on VeroE6 cells. Ribavirin was included as a reference compound.

WNV-protease = target: T1, WNV-protease (West Nile virus, UniProt P06935); assay: Incubation with WNV protease and HPLC analysis of cleavage; type: biochemical; conditions: identical conditions, 4 h; data not shown
T1 construct: WNV NS2B 40-amino acid cofactor together with the NS3 protease domain
T1 sequence (P06935 1502-1679): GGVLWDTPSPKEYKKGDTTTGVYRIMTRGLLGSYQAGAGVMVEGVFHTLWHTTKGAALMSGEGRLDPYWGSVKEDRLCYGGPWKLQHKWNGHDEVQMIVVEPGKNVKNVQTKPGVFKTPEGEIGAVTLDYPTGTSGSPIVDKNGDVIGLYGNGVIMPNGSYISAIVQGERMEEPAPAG
T1 sequence (P06935 1424-1463): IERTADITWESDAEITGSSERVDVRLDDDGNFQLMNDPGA
Description: The preferred P3-P1 Lys-Lys-Arg segment[29] was used for the preparation of a series of peptidic inhibitors. The peptides were modified in their prime site segment and at the P4 position (Table 2). […] In contrast, under identical conditions approximately 33% of the chromogenic substrate Phac-Lys-Lys-Arg-pNA was cleaved (data not shown). Thus, these compounds seem to be poor substrates of the WNV NS2B-NS3 protease and therefore, act as competitive inhibitors. The best Ki values <0.2 µM were obtained for peptides with the general structure phenylacetyl-Lys-Lys-Arg-NH2 containing an N-terminal guanidinomethyl substitution at the P4-residue.

| Structure (SMILES) | antiviral effect in DENV-infected cells (DENV (strain 16681)) | amount cleaved by the WNV-protease (WNV-protease) |
| --- | --- | --- |
| N=C(N)N[C@H]1CC[C@H](CNC(=O)[C@H](CCCCN)NC(=O)[C@H](CCCCN)NC(=O)Cc2ccc(Cl)c(Cl)c2)CC1 [inhibitor 1] | no antiviral effect |  |
| N=C(N)NCCC[C@H](NC(=O)[C@H](CCCCN)NC(=O)[C@H](CCCCN)NC(=O)Cc1ccccc1)C(=O)Nc1ccc([N+](=O)[O-])cc1 [Phac-Lys-Lys-Arg-pNA] (HELM PEPTIDE1{[O=C(Cc1ccccc1)[*:2]].K.K.R.[O=[N+]([O-])c1ccc(N[*:1])cc1]}$$$$V2.0) |  | approximately 33% |

From article PMC6445162, “Effects of NS2B-NS3 protease and furin inhibition on West Nile and Dengue virus replication” (Journal of Enzyme Inhibition and Medicinal Chemistry, 2017)
